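Exposure lasted 48 hours, with cells grown in 96-well plates and compounds tested at five concentrations. GI50: concentration for 50% inhibition of growth.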 The source made the active and inactive calls. Cut-off read from the data, not from the text of the source: active = GI50 up to about 1.1 µM and inactive = higher.
What was measured:
Assay in all cases: NCI-60 cell line screen, 48 h
NCI-H226 = tested on: NCI-H226
HOP-18 = tested on: HOP-18
NCI-H522 = tested on: NCI-H522
SF-539 = tested on: SF-539
SF-295 = tested on: SF-295
SK-OV-3 = tested on: SK-OV-3
SNB-19 = tested on: SNB-19
OVCAR-4 = tested on: OVCAR-4
DMS-114 = tested on: DMS-114
EKVX = tested on: EKVX
LOX IMVI = tested on: LOX IMVI
SNB-78 = tested on: SNB-78
M14 = tested on: M14
DLD-1 = tested on: DLD-1

Measured: GI50

COc1ccc(C2C(Cl)C(=O)N2NC(=O)c2ccc(NC(C)=O)cc2)cc1OC (centres undefined)
inactive: NCI-H226 > 100 µM | HOP-18 > 100 µM | NCI-H522 > 100 µM | SF-539 > 100 µM | SF-295 > 100 µM | SK-OV-3 > 100 µM | SNB-19 > 100 µM

CCn1cnnc1-c1nsc2ccccc12
inactive: HOP-18 > 100 µM | OVCAR-4 > 100 µM | DMS-114 > 100 µM | EKVX 26.9 µM | LOX IMVI > 100 µM | SF-539 > 100 µM | SNB-78 > 100 µM | SNB-19 > 100 µM | M14 > 100 µM

Nc1c(-c2ccccc2[N+](=O)[O-])nc2ccccn12
inactive: NCI-H226 > 100 µM | DMS-114 > 100 µM | EKVX > 100 µM | LOX IMVI > 100 µM | SF-295 > 100 µM | DLD-1 > 100 µM | SK-OV-3 > 100 µM | M14 > 100 µM

— ChEMBL document CHEMBL1201862, “PubChem BioAssay data set” (2004)
